In patent US20250214942A1, “INHIBITORS OF RECEPTOR INTERACTING PROTEIN KINASE I FOR THE TREATMENT OF DISEASE” (Board of Regents, The University of Texas System, priority 2019, published 2025):
Where two headings read alike, the source gives them in different places.

Legend:
[1] = system: human monocytic cell line U937; test: Human U937 cellular necroptosis assay (TNFalpha + z-VAD-FMK, Cell Titer-Glo viability); format: cell-based; conditions: U937 cells, 25 ng/mL human TNFalpha + 25 μM z-VAD-FMK, read-out: hU937 Avg IC50
Outline: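 Readout is CellTiter-Glo 2.0 luminescence after 22 h at 37° C with compound, in cells triggered by human TNFalpha (25 ng/mL) and z-VAD-FMK (25 μM) in phenol red-free RPMI/10% FBS. Values are run-averaged IC50s from a four-parameter logistic curve.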

RIPK1 = RIPK1 (Homo sapiens (Human), UniProt Q13546); test: ADP-Glo kinase assay (RIPK1 activity, conversion of ATP to ADP); format: biochemical; conditions: for IC50: 5 nM RIPK1, 50 μM ATP, 6 h reaction, read-out: RIPK1 Enzyme Avg IC50
RIPK1, sequence (Q13546 1-327): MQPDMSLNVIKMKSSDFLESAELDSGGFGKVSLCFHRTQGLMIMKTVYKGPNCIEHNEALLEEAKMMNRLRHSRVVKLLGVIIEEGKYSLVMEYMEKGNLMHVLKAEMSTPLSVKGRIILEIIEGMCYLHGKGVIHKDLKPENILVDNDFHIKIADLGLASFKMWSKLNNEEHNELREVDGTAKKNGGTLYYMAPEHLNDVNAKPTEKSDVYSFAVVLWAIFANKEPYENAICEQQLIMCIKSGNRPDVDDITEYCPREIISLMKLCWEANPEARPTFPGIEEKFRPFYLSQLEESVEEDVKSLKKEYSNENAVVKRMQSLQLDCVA
Outline: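 RIPK1 (5 nM final) was preincubated 10 min at rt with 1:3-diluted compounds in HEPES pH 7.5/MgCl2/DTT/BSA/CHAPS buffer. ATP (50 μM final) was then added for 6 h, and ADP formed was read by ADP-Glo luminescence. IC50 values came from four-parameter logistic fitting.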

| SMILES | IC50 ([1]; Homo sapiens, U-937, 22 h) [µM] | IC50 (RIPK1) [µM] | IC50 ([1]; 22 h) [µM] | observed potency relative to the other enantiomer (RIPK1; enantiomers separated by SFC, assay not named) |
| --- | --- | --- | --- | --- |
| N#Cc1ccc2c(cnn2CC23CC(C(=O)N4N=CC[C@H]4c4cc(F)cc(F)c4)(C2)C3)c1 [Example 253, (S)-1-((3-(5-(3,5-difluoro-phenyl)-4,5-dihydro-1H-pyrazole-1-carbonyl)bicyclo-[1.1.1]pentan-1-yl)methyl)-1H-indazole-5-carbonitrile] | 0.479 | 0.051 | – | – |
| O=C(N1N=CCC1c1cc(F)cc(F)c1)C12CC(Cn3cnc4ncccc43)(C1)C2 (stereo not shown) [Example 193, (3-((1H-imidazo[4,5-b]-pyridin-1-yl)methyl)-bicyclo[1.1.1]pentan-1-yl)(5-(3,5-difluorophenyl)-4,5-dihydro-1H-pyrazol-1-yl)methanone and (3-((3H-imidazol[4,5-b]pyridin-3-yl)methyl)-bicyclo[1.1.1]pentan-1-yl)(5-(3,5-difluorophenyl)-4,5-dihydro-1H-pyrazol-1-yl)methanone] | – | 0.292 | 1.39 | – |
| N#Cc1ccc2c(cnn2CC23CC(C(=O)N4CCC4c4ccccc4)(C2)C3)c1 (stereo not shown) [Example 177, 1-((3-(2-phenylazetidine-1-carbonyl)bicyclo[1.1.1]-pentan-1-yl)methyl)-1H-indazole-5-carbonitrile] | 0.536 | 0.054 | – | – |
| O=C(N1N=CCC1c1cc(F)cc(F)c1)C12CC(Cn3cnc4ccccc43)(C1)C2 (stereo not shown) [Example 23, (3-((1H-Benzo[d]imidazol-1-yl)methyl)bicyclo[1.1.1]pentan-1-yl)(5-(3,5-difluorophenyl)-4,5-dihydro-1H-pyrazol-1-yl)methanone] | 0.158 | 0.03 | – | – |
| N#Cc1ccc2c(cnn2CC23CC(C(=O)N4CC(F)CC4c4cccc(F)c4)(C2)C3)c1 (stereo not shown) [Example 176, 1-((3-(4-fluoro-2-(3-fluoro-phenyl)pyrrolidine-1-carbonyl)bicyclo[1.1.1]-pentan-1-yl)methyl)-1H-indazole-5-carbonitrile] | 0.087 | 0.019 | – | – |
| O=C(N1N=CCC1c1cc(F)cc(F)c1)C12CC(Cn3ncc4cncc(Cl)c43)(C1)C2 (stereo not shown) [Example 68, (3-((7-chloro-1H-pyrazolo-[4,3-c]pyridin-1-yl)methyl)-bicyclo[1.1.1]pentan-1-yl)(5-(3,5-difluorophenyl)-4,5-dihydro-1H-pyrazol-1-yl)methanone] | 0.034 | 0.02 | – | – |
| N#Cc1cnc(OCC23CC(C(=O)N4N=CC[C@@H]4c4cc(F)cc(F)c4)(C2)C3)cn1 [Example 200, (R)-5-((3-(5-(3,5-difluorophenyl)-4,5-dihydro-1H-pyrazole-1-carbonyl)bicyclo[1.1.1]pentan-1-yl)methoxy)pyrazine-2-carbonitrile] | 8.56 | – | – | less potent isomer |
| O=C(N1N=CCC1c1cc(F)cc(F)c1)C12CC(COc3ccc(F)cc3Cl)(C1)C2 (stereo not shown) [Example 334, (3-((2-chloro-4-fluoro-phenoxy)methyl)bicyclo-[1.1.1]pentan-1-yl)(5-(3,5-difluorophenyl)-4,5-dihydro-1H-pyrazol-1-yl)methanone] | 0.045 | 0.018 | – | – |
| O=C(N1N=CCC1c1cc(F)cc(F)c1)C12CC(Cn3cc4cc(F)ccc4n3)(C1)C2 (stereo not shown) [Example 3, (5-(3,5-Difluorophenyl)-4,5-dihydro-1H-pyrazol-1-yl)(3-((5-fluoro-2H-indazol-2-yl)methyl)bicyclo[1.1.1]pentan-1-yl)methanone] | 0.112 | 0.051 | – | – |
| Cc1ccccc1OCC12CC(C(=O)N3N=CCC3c3cc(F)cc(F)c3)(C1)C2 (stereo not shown) [Example 337, (5-(3,5-difluorophenyl)-4,5-dihydro-1H-pyrazol-1-yl)(3-((o-tolyloxy)methyl)bicyclo-[1.1.1]pentan-1-yl)methanone] | 0.14 | 0.024 | – | – |
| O=C(N1N=CCC1c1cc(F)cc(F)c1)C12CC(COc3cc(F)cnc3F)(C1)C2 (stereo not shown) [Example 328, (5-(3,5-difluorophenyl)-4,5-dihydro-1H-pyrazol-1-yl)(3-(((2,5-difluoropyridin-3-yl)-oxy)methyl)bicyclo[1.1.1]-pentan-1-yl)methanone] | 0.409 | 0.116 | – | – |
| N#CC1CCN(CC23CC(C(=O)N4N=CCC4c4cc(F)cc(F)c4)(C2)C3)C1 (stereo not shown) [Example 155, 1-((3-(5-(3,5-difluorophenyl)-4,5-dihydro-1H-pyrazole-1-carbonyl)bicyclo[1.1.1]-pentan-1-yl)methyl)-pyrrolidine-3-carbonitrile] | 5.29 | 0.814 | – | – |
| O=C(N1N=CCC1c1cc(F)cc(F)c1)C12CC(Cn3ccc4ncc(F)cc43)(C1)C2 (stereo not shown) [Example 134, (5-(3,5-difluorophenyl)-4,5-dihydro-1H-pyrazol-1-yl)(3-((6-fluoro-1H-pyrrolo[3,2-b]-pyridin-1-yl)methyl)-bicyclo[1.1.1]pentan-1-yl)methanone] | 0.046 | 0.024 | – | – |
| N#Cc1cc(OCC23CC(C(=O)N4CC(F)CC4c4cccc(F)c4)(C2)C3)ncn1 (stereo not shown) [Example 92, 6-((3-(4-fluoro-2-(3-fluorophenyl)pyrrolidine-1-carbonyl)bicyclo[1.1.1]-pentan-1-yl)methoxy)-pyrimidine-4-carbonitrile] | 0.518 | 0.056 | – | – |
